Measurements reported in the supplement of paper PMC8671470.

Key:
Conditions in all cases: 72 h
[1] = test system: HL-60; assay: cell viability (% survival relative to DMSO control); higher = less cytotoxic
Method in brief: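 A rescreen of the full library used HL-60 cells in RPMI 1640 with 10% FBS on 384-well plates, run in duplicate at five tenfold concentrations (1–10,000 nM). Each screen included DMSO or 100 nM of one of three metabolic inhibitors and ran 72 h at 37 °C, 5% CO2. CellTiter-Glo viability was scaled between DMSO and 10 μM proteasome-inhibitor wells. Any area under the curve comes from four-parameter log-logistic fits with drc and PharmacoGx.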

[2] = test system: MV4-11
Method in brief: (§1)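 Fifteen myeloid leukaemia cell lines were seeded in RPMI 1640 at a density titrated to the linear growth range. Each line went into 384-well plates with compounds acoustically pre-printed at five tenfold doses from 1 to 10,000 nM, in duplicate, and was incubated for 72 h at 37 °C with 5% CO2. Luminescent ATP viability was normalised to vehicle and to a positive control at 10 µM. The IC50 came from four-parameter log-logistic dose–response fits.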

[3] = test system: K-562
Method in brief: as §1

[4] = test system: KU-812
Method in brief: as §1

[5] = test system: NOMO-1
Method in brief: as §1

[6] = test system: Mono-Mac-6
Method in brief: as §1

[7] = test system: ML-2; assay: cell viability (% survival relative to DMSO control, bortezomib = 0%); higher = less cytotoxic
Method in brief: (§2)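 After 72 h at 37 °C with 5% CO2, cell viability in 384-well plates was measured by CellTiter-Glo luminescence. The plates held compounds pre-printed at 1, 10, 100, 1000 or 10000 nM in duplicate, and cells from 10 AML and 5 CML lines seeded at densities titrated to linear growth. Percent survival is the duplicate mean, normalised to vehicle as 100% and a 10 µM positive control as 0%.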

[8] = test system: MV4-11; assay: as above
Method in brief: as §2

[9] = test system: HL-60; assay: as above
Method in brief: as §2

[10] = test system: MOLM-13; assay: as above
Method in brief: as §2

[11] = test system: THP-1; assay: as above
Method in brief: as §2

[12] = test system: SHI-1; assay: as above
Method in brief: as §2

[13] = test system: K-562; assay: as above
Method in brief: as §2

[14] = test system: KU-812; assay: as above
Method in brief: as §2

[15] = test system: BV-173; assay: as above
Method in brief: as §2

[16] = test system: HEL; assay: as above
Method in brief: as §2

[17] = test system: LAMA-84; assay: as above
Method in brief: as §2

[18] = test system: NOMO-1; assay: as above
Method in brief: as §2

[19] = test system: KCL-22; assay: as above
Method in brief: as §2

[20] = test system: Mono-Mac-6; assay: as above
Method in brief: as §2

[21] = test system: KG-1; assay: as above
Method in brief: as §2

COc1ccc(S(=O)(=O)N2CCN(S(=O)(=O)c3ccc4c(c3)OCCO4)CC2)cc1 [BML283]
cell viability [%], [1]
Conditions | 0.001 µM | 0.01 µM | 0.1 µM | 1 µM | 10 µM
co-treatment: AZD3965 100 nM | 101.4 | 96.5 | 107 | 104 | 84
co-treatment: DMSO vehicle | 102 | 86.2 | 103 | 107 | 97.1
co-treatment: GSK2194069 100 nM | 99.2 | 74.9 | 99.56 | 99.4 | 98.6
co-treatment: pictilisib 100 nM | 105 | 74.7 | 100.2 | 90.1 | 77.4

Conditions | IC50 (cell viability) [µM]
[2] | > 10
[3] | > 10
[4] | > 10
[5] | > 10
[6] | > 10

cell viability [%]
Conditions | 1 nM | 10 nM | 100 nM | 1000 nM | 10000 nM
[7] | 102 | 98.6 | 105 | 106 | 102
[8] | 103 | 93.6 | 89 | 94.1 | 101
[9] | 104 | 97.4 | 85.2 | 120 | 99.9
[10] | 96.4 | 81.7 | 100 | 113 | 97.8
[11] | 98.5 | 103 | 99.3 | 98.9 | 103
[12] | 110 | 94.8 | 96.9 | 96.3 | 103
[13] | 107 | 95.2 | 97.7 | 92.5 | 98.6
[14] | 90.3 | 99.5 | 103 | 108 | 96.5
[15] | 89.9 | 85.8 | 97.5 | 91.7 | 112
[16] | 107 | 88.3 | 96.7 | 90.8 | 101
[17] | 101 | 93.8 | 100 | 103 | 106
[18] | 98 | 95.1 | 94.9 | 102 | 99.7
[19] | 106 | 93.3 | 91.1 | 98.1 | 91.2
[20] | 103 | 101 | 99.8 | 97.6 | 98.6
[21] | 92.7 | 105 | 99 | 109 | 105

Cc1c(-c2ccc(-c3ccccc3F)cc2)nc2ccc(F)cc2c1C(=O)O [Brequinar]
cell viability [%], [1]
Conditions | 0.001 µM | 0.01 µM | 0.1 µM | 1 µM | 10 µM
co-treatment: AZD3965 100 nM | 98.8 | 99.3 | 78.9 | 84.4 | 68.2
co-treatment: DMSO vehicle | 99.9 | 98.8 | 81.4 | 87.8 | 81.3
co-treatment: GSK2194069 100 nM | 96.8 | 103 | 84.9 | 86.9 | 76.8
co-treatment: pictilisib 100 nM | 91.4 | 101 | 86.8 | 87.3 | 93

Conditions | IC50 (cell viability) [µM]
[2] | 7.76
[3] | 8.59
[4] | > 10
[5] | > 10
[6] | > 10

cell viability [%]
Conditions | 1 nM | 10 nM | 100 nM | 1000 nM | 10000 nM
[7] | 97.2 | 98.2 | 88.9 | 107 | 40.3
[8] | 106 | 100 | 94.3 | 110 | 36.8
[9] | 98.5 | 95.8 | 93.2 | 82.7 | 50
[10] | 80.9 | 84.4 | 85.3 | 95.9 | 9.24
[11] | 99.9 | 98.5 | 99 | 102 | 83.3
[12] | 85.3 | 99 | 103 | 111 | 63.9
[13] | 98.1 | 89.2 | 92.9 | 103 | 40.4
[14] | 87.2 | 95.4 | 93.1 | 100 | 80.8
[15] | 94.7 | 90.3 | 93.3 | 118 | 32.2
[16] | 101 | 99.2 | 102 | 69 | 27.8
[17] | 97.3 | 98.2 | 94.2 | 102 | 47.4
[18] | 97.3 | 95.3 | 104 | 104 | 89.5
[19] | 101 | 94.3 | 97.9 | 56.3 | 29.2
[20] | 103 | 95.9 | 97.9 | 91.9 | 50.2
[21] | 105 | 102 | 95 | 105 | 99

CCCCN1C[C@H](O)[C@@H](O)[C@H](O)[C@H]1CO [Miglustat]
cell viability [%], [1]
Conditions | 0.001 µM | 0.01 µM | 0.1 µM | 1 µM | 10 µM
co-treatment: AZD3965 100 nM | 106 | 98.2 | 106 | 96.6 | 100
co-treatment: DMSO vehicle | 101 | 101 | 103 | 98.7 | 98
co-treatment: GSK2194069 100 nM | 91.5 | 94.4 | 104.5 | 99.5 | 101
co-treatment: pictilisib 100 nM | 104 | 109 | 112 | 107 | 101

Conditions | IC50 (cell viability) [µM]
[2] | > 10
[3] | > 10
[4] | > 10
[5] | > 10
[6] | > 10

cell viability [%]
Conditions | 1 nM | 10 nM | 100 nM | 1000 nM | 10000 nM
[7] | 95.4 | 112 | 86.5 | 101 | 94.9
[8] | 99.2 | 91.3 | 103 | 94.4 | 92.2
[9] | 87.6 | 81.8 | 98.7 | 101 | 91.8
[10] | 90 | 102 | 90.7 | 93.9 | 90.8
[11] | 91.1 | 93.3 | 89.6 | 102 | 94.7
[12] | 106 | 93 | 102 | 98.6 | 88.7
[13] | 94.4 | 95.8 | 94.4 | 99.4 | 89.9
[14] | 87.9 | 94.6 | 89.5 | 105 | 86.7
[15] | 90.7 | 104 | 95.6 | 97.8 | 86.8
[16] | 92.6 | 103 | 95.2 | 101 | 93.6
[17] | 94.3 | 97.8 | 96.4 | 103 | 92.8
[18] | 94.3 | 98.4 | 94 | 103 | 90
[19] | 90.9 | 82.1 | 97.8 | 98.1 | 82.9
[20] | 82.9 | 90.4 | 92.4 | 95.4 | 92.7
[21] | 92.6 | 102 | 94.8 | 103 | 93.2

CC[C@@]1(O)C(=O)OCc2c1cc1n(c2=O)Cc2cc3c(CN(C)C)c(O)ccc3nc2-1 [Topotecan]
cell viability [%], [1]
Conditions | 0.001 µM | 0.01 µM | 0.1 µM | 1 µM | 10 µM
co-treatment: AZD3965 100 nM | 99.6 | 98.4 | 7.08 | 3.55 | 2.51
co-treatment: DMSO vehicle | 101 | 103 | 11.5 | 5.98 | 2.79
co-treatment: GSK2194069 100 nM | 91.07 | 111 | 10.4 | 6.25 | 3.68
co-treatment: pictilisib 100 nM | 102 | 98 | 9.22 | 5.76 | 3.31

Conditions | IC50 (cell viability) [µM]
[2] | 0.0119
[3] | 0.097
[4] | 0.0407
[5] | 0.0405
[6] | 0.0344

cell viability [%]
Conditions | 1 nM | 10 nM | 100 nM | 1000 nM | 10000 nM
[7] | 94.6 | 84.8 | 0.565 | 0.238 | 3.1
[8] | 91.1 | 54.2 | 2 | 2.09 | -0.156
[9] | 94.9 | 81.7 | 0.181 | 0.081 | 1.02
[10] | 91.4 | 70.9 | 0.317 | 2.79 | 0.537
[11] | 98.8 | 102 | 78.5 | 30.4 | 13.6
[12] | 97.1 | 85.8 | 0.99 | -0.151 | 0.783
[13] | 90.8 | 92.7 | 48.3 | 13.2 | 4.27
[14] | 95.5 | 99.6 | 13.1 | 3.16 | 1.45
[15] | 100 | 56.7 | -0.0236 | 0.0225 | 0.196
[16] | 94.8 | 103 | 0.201 | 0.373 | 0.268
[17] | 93.6 | 97.4 | 29.2 | 1.78 | 0.506
[18] | 98.7 | 98.9 | 12.6 | 2.17 | 0.853
[19] | 97.2 | 97.8 | 27.9 | 5.33 | 1.56
[20] | 87.3 | 98 | 2.7 | 0.495 | 0.236
[21] | 95.6 | 91.2 | 21.3 | 8.99 | 6.8
